From article PMC9967789, “Green Drug Discovery: Novel Fragment Space from the Biomass-Derived Molecule Dihydrolevoglucosenone (Cyrene^TM)” (Molecules, 2023)
Blank lines part the entries; values can stand above or below the compound they belong to.

Columns and labels:
[1] = Nephelometry solubility in HBSS buffer containing 1% DMSO; assay type: physicochemical; conditions: for concentration up to which no signs of precipitation or aggregation are shown: in triplo
Procedure: Nephelometry was performed using NEPHELOstar Plus equipment (BMG LABTECH, Ortenberg, Germany). Kaolin was used as the internal standard, and compounds were added to HBSS buffer as DMSO stock solution to a final concentration of 1% DMSO and a total volume of 200 μL. Precipitation or aggregation was considered significant when average values exceeded three times the standard deviation of the blanks. Blank values were omitted if they exceeded three times the standard deviation of the 24 blanks that were measured on each 96-well plate. All compounds were tested in triplo, and wells of suspected outliers were visually inspected before omitting any outliers. Data were processed in Prism version 8.0 (GraphPad, San Diego, CA, USA).

[2] = Incubation experiment: fragment integrity by 1H NMR in DMSO-d6; assay type: physicochemical; conditions: 10^−2 M in DMSO-d6, NMR, three weeks at room temperature or frozen
Procedure: (§1) LCMS studies: A 10 mM solution in DMSO was diluted with HBSS buffer to 0.10 mM. Fragment integrity was measured by LCMS at regular intervals (not shown) up to 20 d in the dark at rt, or after 20 d of freezing. NMR studies: A 10 mM solution in DMSO-d6 was prepared. Fragment integrity was measured with ^1H NMR analysis at regular intervals (not shown) up to 20 d in the dark at rt, or after 20 d of freezing.

[3] = Incubation experiment: fragment integrity by LCMS in HBSS buffer/1% DMSO; assay type: physicochemical; conditions: 10^−4 M in HBSS buffer/1% DMSO
Procedure: as §1

[4] = parameters: method as in doi:10.1021/acssuschemeng.6b02115; conditions: cited from earlier work
[5] = cited from earlier work

concentration up to which no signs of precipitation or aggregation are shown [1]: 1000 µM
SMILES: Cc1ccc(COC2CC[C@H]3CO[C@@H]2O3)cc1 (some centres unmarked) [Compound 5c]

concentration at which the precipitate/aggregate starts to form [1]: 10^−3 M
concentration up to which no signs of precipitation or aggregation are shown [1]: 320 µM
SMILES: O=C(Nc1ccc(Cl)cc1)OC1CC[C@H]2CO[C@@H]1O2 (some centres unmarked) [Compound 7c]

concentration up to which no signs of precipitation or aggregation are shown [1]: 3200 µM
SMILES: Cn1ccc(CNC2CC[C@H]3CO[C@@H]2O3)n1.O=C(O)CCC(=O)O (some centres unmarked) [Compound 8f]

decomposition in DMSO [2]: no significant decomposition
byproduct formed ([3]; three weeks at room temperature): ca. 2.5%
SMILES: Clc1cccc(Cl)c1CNC1CC[C@H]2CO[C@@H]1O2 (some centres unmarked) [Compound 8h]

decomposition in DMSO [2]: no significant decomposition
reactivity on incubation in buffer ([3]; three weeks at room temperature or frozen): no or only minor reactivity
SMILES: COc1ccc(C(=O)NC2CC[C@H]3CO[C@@H]2O3)cc1 (some centres unmarked) [Compound 9h]

concentration up to which no signs of precipitation or aggregation are shown [1]: 1000 µM
SMILES: O=C(NC1CC[C@H]2CO[C@@H]1O2)c1cccs1 (some centres unmarked) [Compound 9p]

concentration up to which no signs of precipitation or aggregation are shown [1]: 320 µM
SMILES: O=S(=O)(NC1CC[C@H]2CO[C@@H]1O2)C1CC1 (some centres unmarked) [Compound 12f]

SMILES: O=C1CC[C@H]2CO[C@@H]1O2 [Cyrene, dihydrolevoglucosenone]
toxicity [4]: low toxicity
water solubility [5]: highly water-soluble

SMILES: C1COC2(CCC3COC2O3)O1 (centres unmarked) [glycol acetal of Cyrene]
miscibility with water [5]: water-miscible

SMILES: O=C1CC2COC(C1)O2 (centres unmarked) [iso-Cyrene]
concentration of solutions obtained in water ([5]; water): 10000 µM
